# Read-outs that look alike come from different tables or passages of the source.
# What was measured:
# [1] = system: larvae of the mustard beetle (Phaedon cochleariae); test: Phaedon cochleariae spray test; format: in vivo; details: foliar, 168 h, read-out: efficacy
# Experimental: (§1) Solvent: 78.0 parts by weight of acetone • • 1.5 parts by weight of dimethylformamide
# (§2) Emulsifier: alkylaryl polyglycol ether
# (§3) To produce a suitable active compound formulation, 1 part by weight of active compound is dissolved with the specified parts by weight of solvent and made up to the desired concentration with water containing an emulsifier concentration of 1000 ppm. To produce further test concentrations, the formulation is diluted with emulsifier-containing water.
# Discs of Chinese cabbage leaves (Brassica pekinensis) are sprayed with an active compound formulation of the desired concentration and, after drying, populated with larvae of the mustard beetle (Phaedon cochleariae).
# After 7 days, the efficacy in % is determined. 100% means that all the beetle larvae have been killed; 0% means that no beetle larvae have been killed.
# [2] = system: green peach aphid (Myzus persicae); test: Myzus persicae spray test; format: in vivo; details: foliar, 120 h, read-out: efficacy
# Experimental: Solvent: 78 parts by weight of acetone • • 1.5 parts by weight of dimethylformamide
# as §2, §3
# Discs of Chinese cabbage leaves (Brassica pekinensis) infested by all stages of the green peach aphid (Myzus persicae) are sprayed with an active compound formulation of the desired concentration.
# (§4) After 5 days, the efficacy in % is determined. 100% means that all the aphids have been killed; 0% means that no aphids have been killed.
# [3] = system: caterpillars of the fall armyworm (Spodoptera frugiperda); test: Spodoptera frugiperda spray test; format: in vivo; details: foliar, 168 h, read-out: efficacy
# Experimental: as §1, §2, §3
# Leaf discs of maize (Zea mays) are sprayed with an active compound formulation of the desired concentration and, after drying, populated with caterpillars of the fall armyworm (Spodoptera frugiperda).
# After 7 days, the efficacy in % is determined. 100% means that all the caterpillars have been killed; 0% means that no caterpillar has been killed.
# [4] = system: adult cat fleas (Ctenocephalides felis); test: Ctenocephalides felis in vitro contact test with adult cat fleas; format: in vivo; details: application rate 5 μg/cm^2 (=500 g/ha), after 48 h, dead or moribund fleas
# Experimental: For the coating of the test tubes, 9 mg of active compound are first dissolved in 1 ml of acetone p.a. and then diluted to the desired concentration with acetone p.a. 250 μl of the solution are distributed homogeneously on the inner walls and the base of a 25 ml glass tube by turning and rocking on an orbital shaker (rocking rotation at 30 rpm for 2 h). With 900 ppm of active compound solution and internal surface area 44.7 cm^2, given homogeneous distribution, an area-based dose of 5 μg/cm^2 is achieved.
# After the solvent has evaporated off, the tubes are populated with 5-10 adult cat fleas (Ctenocephalides felis), sealed with a perforated plastic lid and incubated in a horizontal position at room temperature and ambient humidity. After 48 h, efficacy is determined. To this end, the tubes are stood upright and the fleas are knocked to the base of the tube. Fleas which remain motionless at the base or move in an uncoordinated manner are considered to be dead or moribund.
# 100% efficacy means that all the fleas were dead or moribund. 0% efficacy means that no fleas were harmed.
# [5] = system: green peach aphids (Myzus persicae); test: Myzus persicae oral test; format: in vivo; details: 120 h, read-out: efficacy
# Experimental: Solvent: 100 parts by weight of acetone
# To produce a suitable active compound formulation, 1 part by weight of active compound is dissolved with the stated parts by weight of solvent and made up to the desired concentration with water.
# 50 μl of the active compound formulation are transferred into microtitre plates and made up to a final volume of 200 μl with 150 μl of IPL41 insect medium (33%+15% sugar). Subsequently, the plates are sealed with parafilm, which a mixed population of green peach aphids (Myzus persicae) within a second microtitre plate is able to puncture and imbibe the solution.
# as §4
# [6] = system: adult cat fleas (Ctenocephalides felis); test: Ctenocephalides felis oral test; format: in vivo; details: 48 h, read-out: efficacy (kill)
# Experimental: (§5) Solvent: dimethyl sulfoxide
# To produce a suitable active compound formulation, 10 mg of active compound are mixed with 0.5 ml of dimethyl sulfoxide. Dilution with citrated cattle blood gives the desired concentration.
# About 20 unfed adult cat fleas (Ctenocephalides felis) are placed into a chamber which is closed at the top and bottom with gauze. A metal cylinder whose bottom end is closed with parafilm is placed onto the chamber. The cylinder contains the blood/active compound formulation, which can be imbibed by the fleas through the parafilm membrane.
# After 2 days, the kill in % is determined. 100% means that all of the fleas have been killed; 0% means that none of the fleas have been killed.
# [7] = system: L1 larvae of the Australian sheep blowfly (Lucilia cuprina); test: Lucilia cuprina test; format: in vivo; details: 48 h, read-out: efficacy (kill)
# Experimental: as §5
# To produce a suitable active compound formulation, 10 mg of active compound are mixed with 0.5 ml of dimethyl sulfoxide, and the concentrate is diluted with water to the desired concentration.
# About 20 L1 larvae of the Australian sheep blowfly (Lucilia cuprina) are transferred into a test vessel containing minced horsemeat and the active compound formulation of the desired concentration.
# After 2 days, the kill in % is determined. 100% means that all the larvae have been killed; 0% means that no larvae have been killed.
# [8] = logP by HPLC on reversed-phase column (C18), acidic range; format: physicochemical; details: formic acid in water/acetonitrile
# Experimental: The logP values were determined according to EEC Directive 79/831 Annex V.A8 by HPLC (high-performance liquid chromatography) on a reversed-phase column (C18) using the following methods:
# Calibration was carried out using a homologous series of straight-chain alkan-2-ones (having 3 to 16 carbon atoms) with known logP values. The values between successive alkanones are determined by linear regression.
# [9] = 100 g/ha, after 7 days, Chinese cabbage leaf discs
# [10] = 100 g/ha, after 5 days, Chinese cabbage leaf discs
# [11] = 100 g/ha, after 7 days, maize leaf discs
# [12] = 100 ppm in citrated cattle blood, after 2 days
# [13] = reversed-phase HPLC column (C18)
compound,measurement,setting,value
CCS(=O)(=O)c1c(-c2nc3cc(C(F)(F)F)cnc3n2C)nc2cc(NC3=CC(=O)OC3)ccn12 [Example I-19],pest or weed control at 100 g/ha,[1]; [9],100%
CCS(=O)(=O)c1c(-c2nc3cc(C(F)(F)F)ncc3n2C)nc2cc(S(=O)(=O)NC3CC3)ccn12 [Example I-23],pest or weed control at 100 g/ha,[2]; [10],90%
CCS(=O)(=O)c1c(-c2nc3cc(OC(F)(F)F)cnc3n2C)nc2cc(C3(C#N)CC3)ccn12 [Example I-29],pest or weed control at 100 g/ha,[1]; [9],100%
same,pest or weed control at 100 g/ha,[2]; [10],90%
same,pest or weed control at 100 g/ha,[3]; [11],100%
CCS(=O)(=O)c1c(-c2nc3cc(C(F)(F)F)nnc3n2C)nc2cc(NS(=O)(=O)C3CC3)ccn12 [Example I-26],pest or weed control at 100 g/ha,[2]; [10],100%
CCS(=O)(=O)c1c(-c2nc3cc(C(F)(F)F)cnc3n2C)nc2cc(NC(=O)OC3CCC3)ccn12 [Example I-02],efficacy,[4],100%
same,pest or weed control at 4 ppm,[5],100%
same,pest or weed control at 100 ppm,[6]; [12],100%
same,pest or weed control at 100 ppm,[7],100%
same,pest or weed control at 100 g/ha,[1]; in Brassica rapa,67%
same,pest or weed control at 100 g/ha,[2]; in Brassica rapa,70%
same,pest or weed control at 100 g/ha,[3]; in Zea mays,83%
"CCS(=O)(=O)c1c(-c2nc3cc(C(F)(F)F)cnc3n2C)nc2cc(CC#N)ccn12 [{3-(Ethylsulfonyl)-2-[3-methyl-6-(trifluoromethyl)-3H-imidazo[4,5-b]pyridin-2-yl]imidazo[1,2-a]pyridin-7-yl}acetonitrile]",chromatographic logP,[8]; [13],2.54
CCS(=O)(=O)c1c(-c2nc3cc(C(F)(F)F)cnc3n2C)nc2cc(NC(=O)OCC3CC3)ccn12 [Example I-04],pest or weed control at 100 ppm,[6]; [12],100%
same,pest or weed control at 100 ppm,[7],100%
same,pest or weed control at 100 g/ha,[1]; in Brassica rapa,100%
same,pest or weed control at 100 g/ha,[3]; in Zea mays,100%
"CCOC(=O)c1nc2cc(Br)ccn2c1S(=O)(=O)CC [Ethyl 7-bromo-3-(ethylsulfonyl)imidazo[1,2-a]pyridine-2-carboxylate]",chromatographic logP,[8]; [13],2.22
"CCS(=O)(=O)c1c(-c2nc3cc(C(F)(F)F)cnc3n2C)nc2cc(C(=O)NNC3CC3)ccn12 [Example I-10, N′-Cyclopropyl-3-(ethylsulfonyl)-2-[3-methyl-6-(trifluoromethyl)-3H-imidazo[4,5-b]pyridin-2-yl]imidazo[1,2-a]pyridine-7-carbohydrazide]",pest or weed control at 4 ppm,"[5]; 4 ppm, after 5 days",100%
same,chromatographic logP,[8]; [13],2.41
same,pest or weed control at 100 g/ha,[2]; [10],90%
"CCS(=O)(=O)c1c(-c2nc3cc(C(F)(F)F)cnc3n2C)nc2cc(NC(=O)OC3(C)CC3)ccn12 [Example I-08, 1-Methylcyclopropyl-{3-(ethylsulfonyl)-2-[3-methyl-6-(trifluoromethyl)-3H-imidazo[4,5-b]pyridin-2-yl]imidazo[1,2-a]pyridin-7-yl}carbamate]",pest or weed control at 4 ppm,[5],100%
same,chromatographic logP,[8],3.14
same,pest or weed control at 100 ppm,[6],100%
same,pest or weed control at 100 ppm,[7],100%
same,pest or weed control at 100 g/ha,[1]; in Brassica rapa,100%
same,pest or weed control at 100 g/ha,[3]; in Zea mays,100%
C=CCOC(=O)Nc1ccn2c(S(=O)(=O)CC)c(-c3nc4cc(C(F)(F)F)cnc4n3C)nc2c1 [Example I-17],pest or weed control at 100 ppm,[6]; [12],100%
same,pest or weed control at 100 g/ha,[1]; in Brassica rapa,100%
same,pest or weed control at 100 g/ha,[3]; in Zea mays,100%
"CCS(=O)(=O)c1c(-c2nc3cc(C(F)(F)F)cnc3n2C)nc2cc(NC(C)=O)ccn12 [N-{3-(Ethylsulfonyl)-2-[3-methyl-6-(trifluoromethyl)-3H-imidazo[4,5-b]pyridin-2-yl]imidazo[1,2-a]pyridin-7-yl}acetamide]",chromatographic logP,[8]; [13],2.28
"CCOC(=O)c1nc2cc(Br)ccn2c1SCC [Ethyl 7-bromo-3-(ethylsulfanyl)imidazo[1,2-a]pyridine-2-carboxylate]",chromatographic logP,[8]; [13],2.76
"CCS(=O)(=O)c1c(C(=O)O)nc2cc(Br)ccn12 [7-Bromo-3-(ethylsulfonyeimidazo[1,2-a]pyridine-2-carboxylic acid]",chromatographic logP,[8]; [13],1.52
CCS(=O)(=O)c1c(-c2nc3cc(C(F)(F)F)cnc3n2C)nc2cc(NC(=O)NC3CC3)ccn12 [Example I-03],pest or weed control at 4 ppm,"[5]; 4 ppm, after 5 days",100%
same,pest or weed control at 100 ppm,[6]; [12],100%
same,pest or weed control at 100 ppm,"[7]; 100 ppm, after 2 days",100%
same,pest or weed control at 100 g/ha,[1]; [9],100%
same,pest or weed control at 100 g/ha,[2]; [10],100%
"CCS(=O)(=O)c1c(-c2nc3cc(C(F)(F)F)cnc3n2C)nc2cc(Br)ccn12 [2-[7-Bromo-3-(ethylsulfonyl)imidazo[1,2-a]pyridin-2-yl]-3-methyl-6-(trifluoromethyl)-3H-imidazo[4,5-b]pyridine]",chromatographic logP,[8]; [13],3.3
"CCS(=O)(=O)c1c(-c2nc3cc(C(F)(F)F)cnc3n2C)nc2cc(N)ccn12 [3-(Ethylsulfonyl)-2-[3-methyl-6-(trifluoromethyl)-3H-imidazo[4,5-b]pyridin-2-yl]imidazo[1,2-a]pyridine-7-amine]",chromatographic logP,[8]; [13],2.13
CCS(=O)(=O)c1c(-c2nc3cc(SC(F)(F)F)cnc3n2C)nc2cc(NC(=O)C3CC3)ccn12 [Example I-13],efficacy,[4],100%
same,pest or weed control at 4 ppm,"[5]; 4 ppm, after 5 days",100%
same,pest or weed control at 100 ppm,[6]; [12],100%
same,pest or weed control at 100 ppm,"[7]; 100 ppm, after 2 days",100%
same,pest or weed control at 100 g/ha,[1]; [9],100%
same,pest or weed control at 100 g/ha,[2]; [10],90%
same,pest or weed control at 100 g/ha,[3]; [11],100%
CCS(=O)(=O)c1c(-c2nc3cc(C(F)(F)F)cnc3n2C)nc2cc(/C=C/C3CC3)ccn12 [Example I-14],pest or weed control at 4 ppm,"[5]; 4 ppm, after 5 days",100%
same,pest or weed control at 100 ppm,[6]; [12],98%
same,pest or weed control at 100 g/ha,[1]; [9],100%
same,pest or weed control at 100 g/ha,[2]; [10],90%
same,pest or weed control at 100 g/ha,[3]; [11],100%
CCS(=O)(=O)c1c(-c2nc3cc(S(=O)(=O)C(F)(F)F)cnc3n2C)nc2cc(S(=O)(=O)C3CC3)ccn12 [Example I-15],pest or weed control at 100 g/ha,[1]; [9],100%
same,pest or weed control at 100 g/ha,[2]; [10],90%
same,pest or weed control at 100 g/ha,[3]; [11],100%
"CCS(=O)(=O)c1c(-c2nc3cc(C(F)(F)F)cnc3n2C)nc2cc(NC(=S)OCC3CC3)ccn12 [Example I-06, O-(Cyclopropylmethyl) {3-(ethylsulfonyl)-2-[3-methyl-6-(trifluoromethyl)-3H-imidazo[4,5-b]pyridin-2-yl]imidazo[1,2-a]pyridin-7-yl}carbamothioate]",pest or weed control at 4 ppm,[5],100%
same,chromatographic logP,[8],3.76
same,pest or weed control at 100 g/ha,[1]; in Brassica rapa,100%
same,pest or weed control at 100 g/ha,[3]; in Zea mays,100%

# Reference: patent USRE50663E1, “Heterocycle derivatives as pesticides” (Bayer Aktiengesellschaft, priority 2017, dated 2025)
